Results reported in patent US12145913B2, “Inhibition of Olig2 activity” (Curtana Pharmaceuticals, Inc., priority 2016, dated 2024).

System: GBM8 human glioblastoma cells
Test: GBM8 viability assay (Cell Titer Glo)
Assay type: cell-based
Conditions: 72 h, luminescence
Description: Cell culture medium was prepared from a NSA proliferation kit (Neurocult) and NeuroCult supplements (Stemcell Tech Cat. #05751) and treated with 20 μL of 10 μg/mL rh EGF, 10 μL of 10 μg/mL rh bFGF and 10 μL of 0.2% Heparin. In this medium, human glioblastoma cells were cultured in ultra-low attachment tissue culture flasks until 1×10^6 cells ml was achieved (GBM4 and GBM8 are distinct neurosphere cell cultures derived from these human patient tissues). GBM4 and GBM8 cells were dissociated and 10 mL of media containing 4000 human glioblastoma cells per 90 μL were transferred to an ultra-low binding 96-well plate and incubated at 37° C. overnight. On the following day, 10 μL of a 1% DMSO solution of test compound in assay medium was added to wells containing the cell suspension and the mixture incubated at 37° C. for 3 days. At this time, the plate was removed from the incubator and allowed to reach room temperature. After about 30 minutes, 50 μL of Cell Titer Glo solution was added to each well and the plate shaken for 1 minute at low speed. After 10 minutes luminescence was recorded using a Tecan Safire2 reader.
Reduction in luminescence compared to DMSO only control wells was used to determine the percentage inhibition of cell growth. IC50s were calculated using the % inhibition of luminescence for serial dilutions of compounds fitted to a 4-parameter fit within the Prism (San Diego) curve fitting program. Tables 1 (compounds 3-188) and 2 (compounds 190-212) show the GBM4 IC50 and GBM8 IC50 for compounds described herein.

SMILES | IC50 (Table 1, 3 days incubation) | IC50 (Table 2, 3 days incubation)
CC(C)c1cc(NO)nc(NC(=O)Nc2ccc3ccccc3c2)n1 [Compound 187, 1-(4-(hydroxyamino)-6-isopropylpyrimidin-2-yl)-3-(naphthalen-2-yl)urea] | 500 to 5000 nM | 
Cc1cc(NCCNS(C)(=O)=O)nc(NC(=O)Nc2ccc(Cl)c(Cl)c2)n1 [Compound 123, N-(2-((2-(3-(3,4-dichlorophenyl)ureido)-6-methylpyrimidin-4-yl)amino)ethyl)methanesulfonamide] | < 500 nM | 
Cc1cc(NCCNS(C)(=O)=O)nc(NC(=O)Nc2ccc(OC(C)C)cc2)n1 [Compound 139, N-(2-((2-(3-(4-isopropoxyphenyl)ureido)-6-methylpyrimidin-4-yl)amino)ethyl)methanesulfonamide] | < 500 nM | 
CCNc1cc(C)nc(NC(=O)Nc2ccc(Oc3ccccc3)cc2)n1 [Compound 134, 1-(4-(ethylamino)-6-methylpyrimidin-2-yl)-3-(4-phenoxyphenyl)urea] | < 500 nM | 
CC(C)c1cc(NCCCN(C)C)nc(NC(=O)Nc2ccc(OC(F)(F)F)cc2)n1 [Compound 194, 1-(4-((3-(dimethylamino)propyl)amino)-6-isopropylpyrimidin-2-yl)-3-(4-(trifluoromethoxy)phenyl)urea] |  | 500 to 5000 nM
Cc1cc(NCCc2ccc[nH]2)nc(NC(=O)Nc2ccc3ccccc3c2)n1 [Compound 24, 1-(4-((2-(1H-pyrrol-2-yl)ethyl)amino)-6-methylpyrimidin-2-yl)-3-(naphthalen-2-yl)urea] | < 500 nM | 
Cc1cc(NCCN)nc(NC(=O)Nc2ccc(OC(F)(F)F)c(Cl)c2)n1 [Compound 150, 1-(4-((2-aminoethyl)amino)-6-methylpyrimidin-2-yl)-3-(3-chloro-4-(trifluoromethoxy)phenyl)urea] | < 500 nM | 
Cc1cc(N)nc(NC(=O)Nc2ccc3ccccc3c2)n1 [Compound 47, 1-(4-amino-6-methylpyrimidin-2-yl)-3-(naphthalen-2-yl)urea] | < 500 nM | 
Cc1cc(NCCCN(C)C)nc(NC(=O)Nc2ccc3ccccc3n2)n1 [Compound 96, 1-(4-((3-(dimethylamino)propyl)amino)-6-methylpyrimidin-2-yl)-3-(quinolin-2-yl)urea] | 500 to 5000 nM | 
Cc1cc(NCCNS(C)(=O)=O)nc(NC(=O)Nc2ccc(OC(F)(F)F)c(Cl)c2)n1 [Compound 151, N-(2-((2-(3-(3-chloro-4-(trifluoromethoxy)phenyl)ureido)-6-methylpyrimidin-4-yl)amino)ethyl)methanesulfonamide] | < 500 nM | 
O=C(Nc1ccc(OC(F)(F)F)cc1)Nc1nccc(Cl)n1 [Compound 162, 1-(4-Chloropyrimidin-2-yl)-3-(4-(trifluoromethoxy)phenyl)urea] | < 500 nM | 
CN(C)CCCNc1nc(NC(=O)Nc2ccc(Cl)c(Cl)c2)ncc1F [Compound 168, 1-(3,4-dichlorophenyl)-3-(4-((3-(dimethylamino)propyl)amino)-5-fluoropyrimidin-2-yl)urea] | 500 to 5000 nM | 
Cc1cc(NCCOCCN(C)C)nc(NC(=O)Nc2ccc3ccccc3c2)n1 [Compound 28, 1-(4-((2-(2-(dimethylamino)ethoxy)ethyl)amino)-6-methylpyrimidin-2-yl)-3-(naphthalen-2-yl)urea] | < 500 nM | 
Cc1cc(NCCCN(C)C)nc(NC(=O)Nc2ccc(-c3ccccc3)cc2)n1 [Compound 125, 1-([1,1′-biphenyl]-4-yl)-3-(4-((3-(dimethylamino)propyl)amino)-6-methylpyrimidin-2-yl)urea] | < 500 nM | 
Cc1cc(NCC2CCCN(C)C2)nc(NC(=O)Nc2ccc3ccccc3c2)n1 (centres unmarked) [Compound 11] | 500 to 5000 nM | 
Cc1cc(NCCCN(C)C)nc(NC(=O)Nc2ccc(Oc3ccccc3)cc2)n1 [Compound 133, 1-(4-((3-(dimethylamino)propyl)amino)-6-methylpyrimidin-2-yl)-3-(4-phenoxyphenyl)urea] | < 500 nM | 

Results, then the compound that gave them:

IC50 (Table 1, 3 days incubation) | IC50 (Table 2, 3 days incubation) | SMILES
< 500 nM |  | COCCNc1cc(C)nc(NC(=O)Nc2ccc3cnccc3c2)n1 [Compound 57]
500 to 5000 nM |  | Cc1cc(NCCCN(C)C)nc(NC(=O)Nc2ccc3ncccc3c2)n1 [Compound 105, 1-(4-((3-(dimethylamino)propyl)amino)-6-methylpyrimidin-2-yl)-3-(quinolin-6-yl)urea]
500 to 5000 nM |  | Cc1cc(NCCC(=O)N(C)C)nc(NC(=O)Nc2ccc3ccccc3c2)n1 [Compound 42, N,N-dimethyl-3-((6-methyl-2-(3-(naphthalen-2-yl)ureido)pyrimidin-4-yl)amino)propanamide]
500 to 5000 nM |  | CC(=O)NCCNc1cc(C)nc(NC(=O)Nc2ccc3ccncc3c2)n1 [Compound 119, N-(2-((2-(3-(isoquinolin-7-yl)ureido)-6-methylpyrimidin-4-yl)amino)ethyl)acetamide]
500 to 5000 nM |  | Cc1cc(NCCN)nc(NC(=O)Nc2ccc3ccncc3c2)n1 [Compound 116, 1-(4-((2-aminoethyl)amino)-6-methylpyrimidin-2-yl)-3-(isoquinolin-7-yl)urea]
500 to 5000 nM |  | Cc1cc(NCCN(C)C)nc(NC(=O)Nc2ccc3cnccc3c2)n1 [Compound 51, 1-(4-((2-(dimethylamino)ethyl)amino)-6-methylpyrimidin-2-yl)-3-(isoquinolin-6-yl)urea]
500 to 5000 nM |  | Cc1cc(NCCCN)nc(NC(=O)Nc2ccc3ncccc3c2)n1 [Compound 108, 1-(4-((3-aminopropyl)amino)-6-methylpyrimidin-2-yl)-3-(quinolin-6-yl)urea]
< 500 nM |  | Cc1cc(NCCCNS(C)(=O)=O)nc(NC(=O)Nc2ccc3cnccc3c2)n1 [Compound 71, N-(3-((2-(3-(isoquinolin-6-yl)ureido)-6-methylpyrimidin-4-yl)amino)propyl)methanesulfonamide]
< 500 nM |  | CNCCCNc1cc(C)nc(NC(=O)Nc2ccc3ccccc3c2)n1 [Compound 31, 1-(4-methyl-6-((3-(methylamino)propyl)amino)pyrimidin-2-yl)-3-(naphthalen-2-yl)urea]
< 500 nM |  | Cc1cc(NCCCNS(C)(=O)=O)nc(NC(=O)Nc2ccc3ccccc3c2)n1 [Compound 37, N-(3-((6-methyl-2-(3-(naphthalen-2-yl)ureido)pyrimidin-4-yl)amino)propyl)methanesulfonamide]
< 500 nM |  | CNc1cc(C)nc(NC(=O)Nc2ccc3cnccc3c2)n1 [Compound 55]
< 500 nM |  | CNCCCCNc1cc(C)nc(NC(=O)Nc2ccc3cnccc3c2)n1 [Compound 65, 1-(isoquinolin-6-yl)-3-(4-methyl-6-((4-(methylamino)butyl)amino)pyrimidin-2-yl)urea]
< 500 nM |  | COC(=O)CCNc1cc(C)nc(NC(=O)Nc2ccc3ccccc3c2)n1 [Compound 25, methyl 3-((6-methyl-2-(3-(naphthalen-2-yl)ureido)pyrimidin-4-yl)amino)propanoate]
< 500 nM |  | Cc1cc(NCCC(N)=O)nc(NC(=O)Nc2ccc3ccccc3c2)n1 [Compound 26, 3-((6-methyl-2-(3-(naphthalen-2-yl)ureido)pyrimidin-4-yl)amino)propanamide]
500 to 5000 nM |  | Cc1cc(NCC(=O)N(C)C)nc(NC(=O)Nc2ccc3cnccc3c2)n1 [Compound 59]
500 to 5000 nM |  | CC(=O)NCCCNc1cc(C)nc(NC(=O)Nc2ccc3ccccc3n2)n1 [Compound 100, N-(3-((6-methyl-2-(3-(quinolin-2-yl)ureido)pyrimidin-4-yl)amino)propyl)acetamide]
